Experimental data published in ChEMBL document CHEMBL1152465, “Comparative evaluation of the inhibitory activities of a series of pyrimidinedione congeners that inhibit human immunodeficiency virus types 1 and 2” (Antimicrob Agents Chemother, 2008).
The source made the active and inactive calls.

Columns and labels:
[1] = tested on: Human immunodeficiency virus 2; assay: Inhibition of HIV2 reverse transcriptase assessed as 32P-labeled GMP incorporation into nascent DNA strand at highest concentration
[2] = tested on: Human immunodeficiency virus 1; assay: Antiviral activity against HIV1 infected in human HeLa cells expressing CD4-LTR assessed as inhibition of viral entry-related beta galactosidase expression treated for 2 hrs followed by drug wash out measured after 48 hrs by MAGI assay; assay type: functional, organism-based; conditions: Human immunodeficiency virus 1, HeLa
[3] = tested on: Human immunodeficiency virus 2; assay: Antiviral activity against HIV2 assessed as inhibition of viral replication treated at time points after viral entry into host cells; assay type: functional, organism-based
[4] = Therapeutic index, ratio of TC50 human HeLa cells expressing CD4-LTR to EC50 for HIV1 entry inhibition in human HeLa cells expressing CD4-LTR; assay type: cell-based; conditions: read-out: TI
[5] = target: Human immunodeficiency virus type 1 reverse transcriptase (Human immunodeficiency virus 1, UniProt Q72547); assay: Inhibition of wild type HIV1 reverse transcriptase assessed as 32P-labeled GMP incorporation into nascent DNA strand
[6] = target: Human immunodeficiency virus type 1 reverse transcriptase (Human immunodeficiency virus 1, UniProt Q72547, K103N); assay: Inhibition of HIV1 reverse transcriptase K103N mutant assessed as 32P-labeled GMP incorporation into nascent DNA strand
[7] = Therapeutic index, ratio of TC50 for human CEM-SS cells to EC50 for HIV2 ROD infected in human CEM-SS cells; assay type: cell-based; conditions: for selectivity ratio: CEM-SS cells, read-out: TI; for TI: cem-ss
[8] = tested on: Human immunodeficiency virus 2; assay: Antiviral activity against HIV2 assessed as inhibition of viral single round replication at early time point; assay type: functional, organism-based
[9] = Therapeutic index, ratio of TC50 for human CEM-SS cells to EC50 for HIV1 RF infected in human CEM-SS cells; assay type: cell-based; conditions: read-out: TI
[10] = tested on: Human immunodeficiency virus 2; assay: Antiviral activity against HIV2 ROD infected in human CEM-SS cells assessed as inhibition of virus-induced cytopathic effect by XTT assay; assay type: functional, organism-based, ISOLATE ROD
[11] = Cytotoxicity against human CEM-SS cells by XTT assay; assay type: cell-based; conditions: read-out: TC50 (the source's name)
[12] = tested on: Human immunodeficiency virus 1; assay: Antiviral activity against HIV1 RF infected in human CEM-SS cells assessed as inhibition of virus-induced cytopathic effect by XTT assay; assay type: functional, organism-based; conditions: Human immunodeficiency virus 1, RF
[13] = tested on: Human immunodeficiency virus 1; assay: Antiviral activity against HIV1 infected in human CEM-SS cells assessed as inhibition of viral replication and virus-induced cytopathic effect by dose-response curve analysis; assay type: functional; conditions: Human immunodeficiency virus 1, CEM-SS
[14] = Cytotoxicity against human HeLa cells expressing CD4-LTR by XTT assay; assay type: cell-based; conditions: read-out: TC50 (the source's name)
[15] = tested on: Human immunodeficiency virus 2; assay: Inhibition of HIV2 reverse transcriptase
[16] = Human immunodeficiency virus 2, ISOLATE ROD, CEM-SS, read-out: EC50

Structure (SMILES) | Activity [1] | EC50 [2] [µM] | Activity [3] | selectivity ratio [4] | IC50 [5] [µM] | IC50 [6] [µM] | selectivity ratio [7] | Activity [8] | selectivity ratio [9] | EC50 [10, 16] [µM] | CC50 [11] [µM] | EC50 [12] [µM] | EC99 [13] [µM] | CC50 [14] [µM] | Activity [15] | TI [7] | EC50 ([10]; cem-ss)
Cc1cc(C)cc(C(=O)c2c(C)c(=O)[nH]c(=O)n2CC2CC=CC2)c1 | inactive | 0.68 | inactive | 121 | 12.7 | > 295 | 2.8 | Active | 14 | 29.6 | 81.9 | 5.91 | 1 | 81.9 | inactive |  | 
CCc1c(Sc2cc(C)cc(C)c2)n(CCC2=CCCC2)c(=O)[nH]c1=O | inactive | 0.03 | inactive | 4400 | 2.16 | 18.3 | 7.4 | Active | 528 | 19.2 | 143 | 0.27 | 1 | 143 | inactive |  | 
CCc1c(Oc2cc(C)cc(C)c2)n(CCC2=CCCC2)c(=O)[nH]c1=O | inactive | 2.62 | inactive | 424 | 10.3 | 247 | > 39.7 | Active | 2600 | 28.2 | 1100 | 0.42 | 1 | 1110 | inactive |  | 
Cc1cc(C)cc(C(=O)c2c(C(C)C)c(=O)[nH]c(=O)n2CCC2C=CCC2)c1 (stereo not given) | inactive | 0.05 | inactive | 341 | 0.023 | 5.5 | 65 | Active | 8940 | 0.2 | 13.7 | 0.0026 | 1 | 18.3 | inactive |  | 
CCc1c(C(=O)c2cc(C)cc(C)c2)n(CCC2CCCC2)c(=O)[nH]c1=O | inactive | 0.02 | inactive | 1230 | 0.119 | > 271 |  | Active | 2580 |  | 25.8 | 0.01 | 1 | 22.2 | inactive | Not Active | Not Active
Cc1cc(C)cc(Sc2c(C(C)C)c(=O)[nH]c(=O)n2CC2CCC2)c1 | inactive | 0.28 | inactive | 37 | 0.02 | 182 | 3.9 | Active | 9290 | 1.6 | 6.1 | 0.00016 | 1 | 10.4 | inactive |  | 
Cc1cc(C)cc(Sc2c(C(C)C)c(=O)[nH]c(=O)n2CCC2CCCC2)c1 | inactive | 1.28 | inactive | 12 | 0.233 | 205 |  | Active | 92 |  | 14.2 | 0.15 | 1 | 15.4 | inactive | Not Active | Not Active
CC(C)c1c(Oc2ccccc2)n(CC2CC=CC2)c(=O)[nH]c1=O | inactive | 0.26 | inactive | 4370 | 4.91 | > 306 | 37.1 | Active | 55200 | 30.7 | 1100 | 0.02 | 1 | 1120 | inactive |  | 
Cc1cc(C)cc(C(=O)c2cc(=O)[nH]c(=O)n2CC2CC=CC2)c1 | inactive | 0.71 | inactive | 124 | 119 | > 308 | 2.8 | Active | 40 | 30.9 | 87.3 | 2.16 | 1 | 87.3 | inactive |  | 
CCc1c(Oc2ccccc2)n(CC2CC=CC2)c(=O)[nH]c1=O | inactive | 0.15 | inactive | 527 | 2.62 | 48.3 | 2.4 | Active | 127 | 32 | 76.2 | 0.61 | 1 | 76.9 | inactive |  | 
Cc1cc(C)cc(C(=O)c2c(C(C)C)c(=O)[nH]c(=O)n2Cc2ccccc2)c1 | inactive | 0.03 | inactive | 726 | 0.011 | 1.4 | 223 | Active | 840 | 0.1 | 17.8 | 0.027 | 1 | 20.1 | inactive |  | 
Cc1cc(C)cc(C(=O)c2c(C(C)C)c(=O)[nH]c(=O)n2CC2CCCC2)c1 | inactive | 0.08 | inactive | 203 | 0.147 | 15.3 | 40 | Active | 5080 | 0.4 | 15.2 | 0.0035 | 1 | 16.6 | inactive |  | 
Cc1cc(C)cc(Oc2c(C(C)C)c(=O)[nH]c(=O)n2CC2CCCC2)c1 | inactive | 0.87 | inactive | 18 | 0.157 | 1.14 | 8.8 | Active | 1050 | 1.3 | 11.8 | 0.019 | 1 | 15.5 | inactive |  | 
CCc1c(C(=O)c2cc(C)cc(C)c2)n(CC2CCCC2)c(=O)[nH]c1=O | inactive | 0.25 | inactive | 996 | 0.169 | 6.9 | 299 | Active | 74700 | 0.8 | 253 | 0.0034 | 1 | 253 | inactive |  | 
Cc1cc(C)cc(C(=O)c2c(C(C)C)c(=O)[nH]c(=O)n2CCC2CC=CC2)c1 | inactive | 0.82 | inactive | 30 | 0.011 | 1.7 | 23 | Active | 2390 | 0.6 | 13.9 | 0.015 | 1 | 24.9 | inactive |  | 
CCc1c(Oc2cc(C)cc(C)c2)n(CCC2C=CCC2)c(=O)[nH]c1=O (stereo not given) | inactive | 0.06 | inactive | 17600 | 0.21 | 1.96 | > 1650 | Active | 570000 | 0.7 | 1100 | 0.0019 | 1 | 1110 | inactive |  | 
CCc1c(C(=O)c2cc(C)cc(C)c2)n(CC2CCCCC2)c(=O)[nH]c1=O | inactive | 0.05 | inactive | 20200 | 0.173 | > 271 | > 362 | Active | 20300 | 3 | 1100 | 0.054 | 1 | 1090 | inactive |  | 
Cc1cc(C)cc(Sc2c(C(C)C)c(=O)[nH]c(=O)n2CC2CCCCC2)c1 | inactive | 0.008 | inactive | 1890 | 0.164 | > 258 | 2.4 | Active | 1560 | 5.5 | 13.2 | 0.011 | 1 | 15.2 | inactive |  | 
